Patent US20230310408A1, “TLR7 INHIBITOR IN COMBINATION WITH PREDNISOLONE OR HYDROXYCHLOROQUINE FOR TREATING CUTANEOUS LUPUS ERYTHEMATOSUS” (priority 2020, published 2023)
Entries after “also recorded” stand apart in the source; their conditions may differ.

Assays:
Type in all cases: in vivo, mouse
[1] = tested on: Female MRL/lpr mice; experiment: Combination studies in MRL/lpr model of lupus, established disease; details: 5 weeks; for total number of cutaneous lesions: doses of Table 2 (FIG. 6); for neck erythema of cutaneous lesions: doses of Table 2 (FIG. 7); for ear erythema of cutaneous lesions: doses of Table 2 (FIG. 8); for total erythema of cutaneous lesions: doses of Table 2 (FIG. 9); for kidney injury marker proteinuria: doses of Table 2 (FIG. 10); for kidney injury marker urinary NGAL: doses of Table 2 (FIG. 11)
Procedure: Female MRL/lpr mice of 15 weeks of age were treated for 5 weeks. […] Total skin lesions score includes cumulative score of Neck/Back, Face, Head and Ear lesions

[2] = tested on: Female MRL/lpr mice; experiment: Combination studies in MRL/lpr model of lupus, advanced disease; details: 5 weeks; for total number of cutaneous lesions: doses of Table 2 (FIG. 12); for neck erythema of cutaneous lesions: doses of Table 2 (FIG. 13, FIG. 14); for ear erythema of cutaneous lesions: doses of Table 2 (FIG. 15); for total erythema of cutaneous lesions: doses of Table 2 (FIG. 16)
Procedure: Female MRL/lpr mice of 16 weeks of age were treated for 5 weeks. […] Total skin lesions score includes cumulative score of Neck/Back, Face, Head and Ear lesions.

[3] = tested on: Female MRL/lpr mice; experiment: Cutaneous model of lupus: female MRL/lpr mice treated orally once daily for 8 weeks;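 as to all read-outs here: mice aged 12–14 weeks, randomized by anti-dsDNA antibody titer and urinary NGAL, treated groups compared against vehicle controls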; details: for % Survival / anti-dsDNA, anti-Ro and anti-smRNP auto-antibody titers / kidney injury markers (proteinuria and urinary NGAL) / cutaneous lesions (number of lesions on face, neck, head, ear; total lesions) / erythema of cutaneous lesions (neck, ear, total): oral once daily; for % Survival / cutaneous lesions (number of lesions on face, neck, head, ear; total lesions) / erythema of cutaneous lesions (neck, ear, total): 8 weeks; for anti-dsDNA, anti-Ro and anti-smRNP auto-antibody titers: 8 weeks (FIG. 3); for anti-dsDNA, anti-Ro and anti-smRNP auto-antibody titers / kidney injury markers (proteinuria and urinary NGAL): at 0.25 and 0.75 mg/kg Compound (I); for kidney injury markers (proteinuria and urinary NGAL): 8 weeks (FIG. 4); for cutaneous lesions (number of lesions on face, neck, head, ear; total lesions): versus vehicle (FIG. 1); for erythema of cutaneous lesions (neck, ear, total): versus vehicle (FIG. 2)

Molecule | total number of cutaneous lesions [1] | neck erythema of cutaneous lesions [1] | ear erythema of cutaneous lesions [1] | total erythema of cutaneous lesions [1] | kidney injury marker proteinuria [1] | kidney injury marker urinary NGAL [1] | total number of cutaneous lesions [2] | neck erythema of cutaneous lesions [2] | ear erythema of cutaneous lesions [2] | total erythema of cutaneous lesions [2] | anti-dsDNA, anti-Ro and anti-smRNP auto-antibody titers [3] | kidney injury markers (proteinuria and urinary NGAL) [3] | cutaneous lesions (number of lesions on face, neck, head, ear; total lesions) [3] | erythema of cutaneous lesions (neck, ear, total) [3] | other results
Cc1c(-c2[nH]c3ccc(C4CCN(CC(N)=O)CC4)cc3c2C(C)C)cn2ncnc2c1C [Compound (I), 2-(4-(2-(7,8-dimethyl-[1,2,4]triazolo[1,5-a]pyridin-6-yl)-3-isopropyl-1H-indol-5-yl)piperidin-1-yl)acetamide] | suppressed | suppressed | suppressed | suppressed | suppression | suppression | suppressed | suppressed; also recorded: increased suppression of erythema of cutaneous lesions on the neck of mice compared the treatment with hydroxychloroquine | suppressed | suppressed | Inhibition; also recorded: significant suppression | reduction; also recorded: Inhibition; also recorded: suppression | significant and robust dose-dependent suppression; also recorded: Dose-dependent inhibition | suppressed; also recorded: significant reduction; also recorded: Dose-dependent inhibition | % Survival ([1]; 0.25 mg/kg): 100%; % Survival ([2]; 0.25 mg/kg): 93.3%; % Survival ([3]; 0.005 mg/kg): 87%; % Survival ([3]; 0.02 mg/kg): 93%; % Survival ([3]; 0.25 mg/kg): 100%; % Survival ([3]; 0.75 mg/kg): 100%; Type I IFN response gene expression ([3]; at 0.25 and 0.75 mg/kg, blood, qPCR): inhibited
CC12C=CC(=O)C=C1CCC1C2C(O)CC2(C)C1CCC2(O)C(=O)CO (stereo not shown) [Prednisolone, 11,17-dihydroxy-17-(2-hydroxyacetyl)-10,13-dimethyl-6,7,8,9,10,11,12,13,14,15,16,17-dodecahydrocyclopenta[a] phenanthren-3-one] | suppression of cutaneous lesions but less than treatment with Compound (I) | suppression | suppression of erythema of cutaneous lesions on the ear of mice but less than treatment with Compound (I) | suppression | suppression | suppression | suppression of cutaneous lesions but less than treatment with Compound (I) | suppression | suppression of erythema of cutaneous lesions on the ear of mice but less than treatment with Compound (I) | suppression | inhibition | reduction | inhibition | reduction | % Survival ([1]; 1 mg/kg): 93.3%; % Survival ([1]; 10 mg/kg): 93.3%; % Survival ([2]; 1 mg/kg): 86.6%; % Survival ([2]; 10 mg/kg): 93.3%; % Survival ([3]; 10 mg/kg): 100%
hydroxychloroquine [HCQ] | suppression of cutaneous lesions but less than treatment with Compound (I) | suppression | suppression of erythema of cutaneous lesions on the ear of mice but less than treatment with Compound (I) | suppression | suppression | suppression | suppression of cutaneous lesions but less than treatment with Compound (I) | suppression | suppression of erythema of cutaneous lesions on the ear of mice but less than treatment with Compound (I) | suppression |  |  |  |  | % Survival ([1]; 100 mg/kg): 93.3%; % Survival ([2]; 100 mg/kg): 100%
